Several values for one entry are separate records, joined by “and”; a condition that tells them apart may be missing. Equal values may be shown once. Inconclusive results and toxic doses are left out. The calls were made as follows: active = survival T/C of 150% or more; inactive = T/C below 125% in these data.
Test system: CD2F1 mice, L1210 leukemia ip, survival T/C
Assay: NCI In Vivo Anticancer Drug Screen. Data for tumor model L1210 Leukemia (intraperitoneal) in CD2F1 (CDF1) mice
Details: endpoint: mean survival time, higher = longer survival
Method in brief: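 Ratio T/C, where T is the treated-group value and C the vehicle-dosed control value, from mice implanted with a transplantable tumor.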

[1] = dose: 50.0 mg/kg/injection, schedule: Q04DX003 (ip), vehicle: saline
[2] = dose: 100.0 mg/kg/injection, schedule: Q04DX003 (ip), vehicle: saline
[3] = dose: 200.0 mg/kg/injection, schedule: Q04DX003 (ip), vehicle: saline
[4] = dose: 100.0 mg/kg/injection, schedule: Q01DX001 (ip), vehicle: saline
[5] = dose: 200.0 mg/kg/injection, schedule: Q01DX001 (ip), vehicle: saline
[6] = dose: 25.0 mg/kg/injection, schedule: Q04DX003 (ip), vehicle: saline
[7] = dose: 100.0 mg/kg/injection, schedule: Q01DX001 (ip), vehicle: saline with Tween-80
[8] = dose: 200.0 mg/kg/injection, schedule: Q01DX001 (ip), vehicle: saline with Tween-80
[9] = dose: 400.0 mg/kg/injection, schedule: Q01DX001 (ip), vehicle: saline with Tween-80
[10] = dose: 100.0 mg/kg/injection, schedule: Q04DX003 (ip), vehicle: saline with Tween-80
[11] = dose: 200.0 mg/kg/injection, schedule: Q04DX003 (ip), vehicle: saline with Tween-80
[12] = dose: 400.0 mg/kg/injection, schedule: Q04DX003 (ip), vehicle: saline with Tween-80
[13] = dose: 100.0 mg/kg/injection, schedule: Q01DX009 (ip), vehicle: saline with Tween-80
[14] = dose: 200.0 mg/kg/injection, schedule: Q01DX009 (ip), vehicle: saline with Tween-80

Measured: T/C

C[N+](C)(C)CC[N+](C)(C)C
inactive: [1] 100 % of control | [2] 103 % of control | [3] 97 % of control

ON=C(CCl)CCl
inactive: dose: 1.56 mg/kg/injection, schedule: Q01DX009 (ip), vehicle: saline 96 % of control | dose: 3.12 mg/kg/injection, schedule: Q01DX009 (ip), vehicle: saline 96 % of control | dose: 6.25 mg/kg/injection, schedule: Q01DX009 (ip), vehicle: saline 93 % of control

O=C(CCl)n1nc(Cl)c2ccc([N+](=O)[O-])cc21
inactive: [4] 98 % of control | [5] 98 % of control

N#C[SH2+].N#C[SH2+].N#C[SH2+].N#C[SH2+].[Cu+2].c1ccc(C[P+](c2ccccc2)(c2ccccc2)c2ccccc2)cc1
inactive: dose: 6.0 mg/kg/injection, schedule: Q04DX003 (ip), vehicle: saline 91 % of control | dose: 12.0 mg/kg/injection, schedule: Q04DX003 (ip), vehicle: saline 89 % of control | [6] 96 % of control

CCCCCOC(=N)CC(=O)C(C)(C)C
inactive: [4] 94 % of control | [5] 94 % of control | dose: 400.0 mg/kg/injection, schedule: Q01DX001 (ip), vehicle: saline 97 % of control

Brc1ccc(C[N+]23CCN(CC2)CC3)cc1
inactive: dose: 12.5 mg/kg/injection, schedule: Q04DX003 (ip), vehicle: saline 98 % of control and 111 % of control | [6] 93 % of control and 100 % of control | [1] 95 % of control and 103 % of control

CC(=O)NCC(O)C(O)C(O)C(O)CO (stereo not drawn)
inactive: dose: 100.0 mg/kg/injection, schedule: Q01DX009 (ip), vehicle: saline 96 % of control | dose: 200.0 mg/kg/injection, schedule: Q01DX009 (ip), vehicle: saline 98 % of control | dose: 400.0 mg/kg/injection, schedule: Q01DX009 (ip), vehicle: saline 110 % of control

OC(c1ccc(Cl)cc1)c1ccc(Cl)cc1
inactive: [7] 105 % of control | [8] 90 % of control | [9] 109 % of control

Cc1c[nH]c(=O)n(CC(=O)C2(O)CCC3C4CCC5=CC(=O)CCC5(C)C4CCC32C)c1=O (stereo not drawn)
inactive: dose: 12.5 mg/kg/injection, schedule: Q04DX003 (ip), vehicle: Klucel (hydroxypropylcellulose) (HPC) 103 % of control | dose: 25.0 mg/kg/injection, schedule: Q04DX003 (ip), vehicle: Klucel (hydroxypropylcellulose) (HPC) 102 % of control | dose: 50.0 mg/kg/injection, schedule: Q04DX003 (ip), vehicle: Klucel (hydroxypropylcellulose) (HPC) 102 % of control | dose: 100.0 mg/kg/injection, schedule: Q04DX003 (ip), vehicle: Klucel (hydroxypropylcellulose) (HPC) 97 % of control | dose: 200.0 mg/kg/injection, schedule: Q04DX003 (ip), vehicle: Klucel (hydroxypropylcellulose) (HPC) 100 % of control

O=c1ccn(C2OC(CO)C(O)C2O)c(C2SCCCS2)n1 (stereo not drawn)
inactive: dose: 9.38 mg/kg/injection, schedule: Q01DX005 (ip), vehicle: water 90 % of control | dose: 18.75 mg/kg/injection, schedule: Q01DX005 (ip), vehicle: water 93 % of control | dose: 37.5 mg/kg/injection, schedule: Q01DX005 (ip), vehicle: water 93 % of control | dose: 75.0 mg/kg/injection, schedule: Q01DX005 (ip), vehicle: water 96 % of control | dose: 150.0 mg/kg/injection, schedule: Q01DX005 (ip), vehicle: water 96 % of control

O=[N+]([O-])c1ccccc1NCCO
inactive: [7] 101 % of control | [8] 98 % of control | [9] 102 % of control

COc1ccccc1N=Nc1c(O)n(-c2ccccc2OC)c(=S)n(-c2ccc(Cl)cc2)c1=O
inactive: [7] 90 % of control | [8] 93 % of control

COc1ccc(C(O)c2ccccc2C(=O)Nc2ccccc2)cc1 (stereo not drawn)
inactive: [10] 93 % of control | [11] 92 % of control | [12] 88 % of control

Oc1ccc(N=Nc2ccccn2)c(O)c1
inactive: [10] 97 % of control | [11] 112 % of control | [12] 93 % of control

CNc1ccc(CSc2ccccc2)cc1
inactive: dose: 100.0 mg/kg/injection, schedule: Q01DX001 (ip), vehicle: Klucel (hydroxypropylcellulose) (HPC) 96 % of control | dose: 200.0 mg/kg/injection, schedule: Q01DX001 (ip), vehicle: Klucel (hydroxypropylcellulose) (HPC) 96 % of control | dose: 400.0 mg/kg/injection, schedule: Q01DX001 (ip), vehicle: Klucel (hydroxypropylcellulose) (HPC) 87 % of control

CCCCCCCCCCCCCC(=O)O.[Pb]
inactive: dose: 75.0 mg/kg/injection, schedule: Q01DX001 (ip), vehicle: other 98 % of control | dose: 150.0 mg/kg/injection, schedule: Q01DX001 (ip), vehicle: other 101 % of control | dose: 300.0 mg/kg/injection, schedule: Q01DX001 (ip), vehicle: other 101 % of control

CN(C)c1ccc(/C=N/NC(=O)CNC(=O)c2ccccc2)cc1
inactive: [13] 95 % of control | [14] 89 % of control | dose: 400.0 mg/kg/injection, schedule: Q01DX009 (ip), vehicle: saline with Tween-80 89 % of control

N#Cc1ncn(C2OC(CO)C(O)C2O)c1N (stereo not drawn)
inactive: dose: 100.0 mg/kg/injection, schedule: Q04DX002 (ip), vehicle: saline with Tween-80 102 % of control | dose: 200.0 mg/kg/injection, schedule: Q04DX002 (ip), vehicle: saline with Tween-80 105 % of control | dose: 400.0 mg/kg/injection, schedule: Q04DX002 (ip), vehicle: saline with Tween-80 109 % of control

Cc1cn(C2CC(O)C(CN=[N+]=[N-])O2)c(=O)[nH]c1=O (stereo not drawn)
inactive: dose: 12.5 mg/kg/injection, schedule: Q01DX005 (ip), vehicle: other 93 % of control | dose: 25.0 mg/kg/injection, schedule: Q01DX005 (ip), vehicle: other 96 % of control | dose: 50.0 mg/kg/injection, schedule: Q01DX005 (ip), vehicle: other 95 % of control | dose: 100.0 mg/kg/injection, schedule: Q01DX005 (ip), vehicle: other 93 % of control | dose: 200.0 mg/kg/injection, schedule: Q01DX005 (ip), vehicle: other 93 % of control

CC(C)C1OCC(C)(C)C(C(C)C)O1 (stereo not drawn)
inactive: dose: 100.0 mg/kg/injection, schedule: Q04DX002 (ip), vehicle: saline 107 % of control | dose: 200.0 mg/kg/injection, schedule: Q04DX002 (ip), vehicle: saline 110 % of control | dose: 400.0 mg/kg/injection, schedule: Q04DX002 (ip), vehicle: saline 96 % of control

CC(CSc1ccccc1)NCCO (stereo not drawn)
inactive: [6] 95 % of control | [1] 94 % of control | [2] 100 % of control

NC(=O)CCC(N)C(=O)O.[Cl-].[Cl-].[Cl-].[Cl-].[Pt+2] (stereo not drawn)
inactive: dose: 12.5 mg/kg/injection, schedule: Q01DX009 (ip), vehicle: water 107 % of control | dose: 25.0 mg/kg/injection, schedule: Q01DX009 (ip), vehicle: water 100 % of control | [6] 111 % of control | [1] 119 % of control

O=C(CC(Cl)(C(F)(F)F)C(F)(F)F)c1cccc([N+](=O)[O-])c1
inactive: dose: 12.5 mg/kg/injection, schedule: Q01DX001 (ip), vehicle: saline with Tween-80 103 % of control | dose: 25.0 mg/kg/injection, schedule: Q01DX001 (ip), vehicle: saline with Tween-80 100 % of control | dose: 50.0 mg/kg/injection, schedule: Q01DX001 (ip), vehicle: saline with Tween-80 97 % of control and 105 % of control

Cc1nc2c(O)cccn2c(=O)c1Cl
inactive: [10] 102 % of control

CC(C)(C)Sc1cccnc1 (tested in a mixture with another compound)
inactive: [13] 92 % of control | [14] 93 % of control

CC(C)(O)CCC(C)(C)O
inactive: [10] 106 % of control | [11] 101 % of control | [12] 103 % of control

Cc1ccccc1S(=O)(=O)/C(=C(/I)c1ccccc1)c1ccccc1
inactive: [1] 94 % of control | [2] 102 % of control | [3] 98 % of control
